Results taken from US8501446B2 (Vertex Pharmaceuticals Incorporated, priority 2004, dated 2013).
pKi: −log10 of the molar value.

Tests used:
Type in all cases: biochemical
[1] = target: ROCK (Homo sapiens, UniProt Q13464); assay: ROCK inhibition assay, standard radioactive enzyme assay ("33P")
Experimental: Some compounds were screened for their ability to inhibit ROCK using a standard radioactive enzyme assay. Assays were carried out in a solution containing 100 mM HEPES (pH 7.5), 10 mM MgCl2, 25 mM NaCl, 2 mM DTT, and 1.5% DMSO. Final substrate concentrations in the assay were 13 μM [γ-^33P] ATP (25 mCi ^33P ATP/mmol ATP, Perkin Elmer, Cambridge, Mass./Sigma Chemicals, St Louis, Mo.) and 27 μM Myelin Basic Protein (MBP). Final enzyme concentration in the assay was 5 nM ROCK. Assays were carried out at room temperature. 1.5 μl of DMSO stock containing serial dilutions of the compound of the present invention (concentrations ranging from 10 μM to 2.6 nM) was placed in a 96 well plate. 50 μl of Solution 1 (100 mM HEPES (pH 7.5), 10 mM MgCl2, […]) was added to the plate. The reaction was initiated by addition of 50 μl of Solution 2 (100 mM HEPES (pH 7.5), 10 mM MgCl2, 4 mM DTT, […] and 10 nM ROCK). After 2 hours the reaction was quenched with 50 μL of 30% trichloroacetic acid (TCA, Fisher) containing 9 mM ATP. Transfer of 140 μL of the quenched reaction to a glass fiber filter plate (Corning, Cat. No. 3511) was followed by washing 3 times with 5% TCA. 50 μL of Optima Gold scintillation fluid (Perkin Elmer) was added and the plates were counted on a Top Count (Perkin Elmer). After removing mean background values for all of the data points the data was fit using Prism software to obtain a Ki(app).

[2] = target: Aurora-B (Homo sapiens, UniProt Q96GD4); assay: Aurora-B inhibition assay, radioactive assay; details: average Ki if more than one value determined
Chain of Aurora-B (Q96GD4 whole entry): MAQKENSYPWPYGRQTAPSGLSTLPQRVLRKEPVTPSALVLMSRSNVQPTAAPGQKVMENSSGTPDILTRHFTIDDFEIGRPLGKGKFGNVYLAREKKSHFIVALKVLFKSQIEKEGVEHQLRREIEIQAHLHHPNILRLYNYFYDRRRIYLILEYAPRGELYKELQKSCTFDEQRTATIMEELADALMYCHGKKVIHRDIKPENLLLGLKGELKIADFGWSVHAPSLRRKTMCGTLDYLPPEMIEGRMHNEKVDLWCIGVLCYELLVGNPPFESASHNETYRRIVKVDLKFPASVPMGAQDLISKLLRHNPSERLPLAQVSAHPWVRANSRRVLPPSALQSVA
Outline: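 Aurora-B protein substituted into the standard radioactive kinase format: reaction quenched with TCA, product captured on glass fiber filters and 33P counted. Ki(app) derived by fitting background-corrected counts against inhibitor concentration.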

[3] = target: T1, full length Aurora-A (AA 1-403) (Homo sapiens, UniProt O14965); assay: Aurora-A inhibition assay, standard coupled enzyme system; details: average Ki if more than one value determined
T1 construct: full length Aurora-A (AA 1-403)
T1 sequence (O14965 1-403): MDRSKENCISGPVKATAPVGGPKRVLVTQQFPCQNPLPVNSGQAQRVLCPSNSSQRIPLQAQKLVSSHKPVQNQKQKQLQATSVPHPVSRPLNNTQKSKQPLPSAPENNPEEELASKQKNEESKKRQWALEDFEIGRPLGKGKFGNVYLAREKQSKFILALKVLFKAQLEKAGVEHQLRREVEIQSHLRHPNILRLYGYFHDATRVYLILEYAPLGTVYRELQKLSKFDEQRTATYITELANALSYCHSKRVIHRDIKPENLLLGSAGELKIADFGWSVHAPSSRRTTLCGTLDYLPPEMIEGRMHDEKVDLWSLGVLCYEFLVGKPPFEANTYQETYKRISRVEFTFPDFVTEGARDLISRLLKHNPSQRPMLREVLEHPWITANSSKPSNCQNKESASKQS

[4] = target: T2, JAK3 (Homo sapiens, UniProt P52333); assay: JAK3 inhibition assay (standard radioactive enzyme assay); details: average Ki if more than one value determined
T2 sequence (P52333 1-1124): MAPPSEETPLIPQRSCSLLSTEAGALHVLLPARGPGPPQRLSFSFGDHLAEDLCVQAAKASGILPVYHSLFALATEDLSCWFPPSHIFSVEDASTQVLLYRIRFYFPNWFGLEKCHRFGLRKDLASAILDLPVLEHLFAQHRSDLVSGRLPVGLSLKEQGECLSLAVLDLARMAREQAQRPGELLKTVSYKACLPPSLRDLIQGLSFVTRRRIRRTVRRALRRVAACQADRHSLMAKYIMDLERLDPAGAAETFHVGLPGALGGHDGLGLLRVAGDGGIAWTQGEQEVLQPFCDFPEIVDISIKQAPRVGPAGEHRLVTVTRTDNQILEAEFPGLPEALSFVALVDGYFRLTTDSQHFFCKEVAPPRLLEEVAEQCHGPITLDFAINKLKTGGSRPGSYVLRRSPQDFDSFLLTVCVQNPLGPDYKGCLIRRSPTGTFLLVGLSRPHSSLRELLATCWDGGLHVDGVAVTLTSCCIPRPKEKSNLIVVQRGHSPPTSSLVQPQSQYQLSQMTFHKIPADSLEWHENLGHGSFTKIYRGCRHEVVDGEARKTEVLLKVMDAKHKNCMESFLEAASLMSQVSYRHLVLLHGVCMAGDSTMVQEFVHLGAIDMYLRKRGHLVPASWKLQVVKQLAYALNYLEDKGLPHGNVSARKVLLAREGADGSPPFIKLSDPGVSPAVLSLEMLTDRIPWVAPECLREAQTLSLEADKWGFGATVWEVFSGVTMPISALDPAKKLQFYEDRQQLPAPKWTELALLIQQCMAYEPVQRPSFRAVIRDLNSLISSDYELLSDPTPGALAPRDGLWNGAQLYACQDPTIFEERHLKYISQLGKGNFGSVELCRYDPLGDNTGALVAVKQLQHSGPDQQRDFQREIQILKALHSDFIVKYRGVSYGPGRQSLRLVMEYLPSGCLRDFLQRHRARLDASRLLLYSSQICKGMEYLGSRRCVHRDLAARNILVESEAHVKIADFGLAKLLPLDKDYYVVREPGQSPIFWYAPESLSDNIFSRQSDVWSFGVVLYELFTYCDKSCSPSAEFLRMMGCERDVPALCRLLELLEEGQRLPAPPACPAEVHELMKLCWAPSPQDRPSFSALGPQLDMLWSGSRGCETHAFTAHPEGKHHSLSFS

[5] = target: JAK2 (Homo sapiens, UniProt O60674); assay: JAK2 inhibition assay (radioactive enzyme assay, as for JAK3); details: average Ki if more than one value determined
Chain of JAK2 (O60674 whole entry, species assumed): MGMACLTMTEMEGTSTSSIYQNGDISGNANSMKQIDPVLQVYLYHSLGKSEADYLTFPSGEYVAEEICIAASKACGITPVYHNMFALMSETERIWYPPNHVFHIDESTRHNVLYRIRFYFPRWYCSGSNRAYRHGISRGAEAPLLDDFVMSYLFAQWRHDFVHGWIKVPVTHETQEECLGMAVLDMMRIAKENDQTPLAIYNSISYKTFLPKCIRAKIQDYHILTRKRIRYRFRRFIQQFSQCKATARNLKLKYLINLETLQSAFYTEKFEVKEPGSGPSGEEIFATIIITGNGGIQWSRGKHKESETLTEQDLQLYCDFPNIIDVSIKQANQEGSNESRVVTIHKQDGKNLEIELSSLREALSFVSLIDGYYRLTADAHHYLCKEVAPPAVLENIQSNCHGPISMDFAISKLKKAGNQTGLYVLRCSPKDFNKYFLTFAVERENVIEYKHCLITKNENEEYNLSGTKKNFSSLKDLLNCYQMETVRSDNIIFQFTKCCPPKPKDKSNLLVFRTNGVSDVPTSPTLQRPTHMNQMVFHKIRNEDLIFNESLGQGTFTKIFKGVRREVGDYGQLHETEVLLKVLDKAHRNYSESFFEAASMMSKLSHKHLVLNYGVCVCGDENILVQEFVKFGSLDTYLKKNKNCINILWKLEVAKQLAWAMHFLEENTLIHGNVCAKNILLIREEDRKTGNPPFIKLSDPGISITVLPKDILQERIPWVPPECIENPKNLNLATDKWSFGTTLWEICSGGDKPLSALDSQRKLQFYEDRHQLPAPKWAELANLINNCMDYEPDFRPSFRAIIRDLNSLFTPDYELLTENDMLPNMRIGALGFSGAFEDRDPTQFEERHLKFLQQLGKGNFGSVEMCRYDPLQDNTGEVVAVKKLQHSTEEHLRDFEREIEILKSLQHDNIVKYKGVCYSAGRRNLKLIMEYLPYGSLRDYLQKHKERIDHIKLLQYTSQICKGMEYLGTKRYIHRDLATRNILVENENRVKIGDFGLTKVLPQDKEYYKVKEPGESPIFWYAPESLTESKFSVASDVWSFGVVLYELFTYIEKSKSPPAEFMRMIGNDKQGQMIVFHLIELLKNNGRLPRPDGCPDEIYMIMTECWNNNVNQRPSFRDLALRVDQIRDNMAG
Outline: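 Both kinases: poly(Glu)4Tyr substrate in 100 mM HEPES pH 7.4, 10 mM MgCl2, 1 mM DTT. Run 20 min at 25° C, TCA stop, filter-bound ³³P counted, Ki(app) fitted after background subtraction. JAK3: final [γ-³³P]ATP 5 μM, enzyme added as 2 nM solution. JAK2: final poly(Glu)4Tyr 15 μM, final ATP 12 μM.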

Chain of ROCK (Q13464 whole entry): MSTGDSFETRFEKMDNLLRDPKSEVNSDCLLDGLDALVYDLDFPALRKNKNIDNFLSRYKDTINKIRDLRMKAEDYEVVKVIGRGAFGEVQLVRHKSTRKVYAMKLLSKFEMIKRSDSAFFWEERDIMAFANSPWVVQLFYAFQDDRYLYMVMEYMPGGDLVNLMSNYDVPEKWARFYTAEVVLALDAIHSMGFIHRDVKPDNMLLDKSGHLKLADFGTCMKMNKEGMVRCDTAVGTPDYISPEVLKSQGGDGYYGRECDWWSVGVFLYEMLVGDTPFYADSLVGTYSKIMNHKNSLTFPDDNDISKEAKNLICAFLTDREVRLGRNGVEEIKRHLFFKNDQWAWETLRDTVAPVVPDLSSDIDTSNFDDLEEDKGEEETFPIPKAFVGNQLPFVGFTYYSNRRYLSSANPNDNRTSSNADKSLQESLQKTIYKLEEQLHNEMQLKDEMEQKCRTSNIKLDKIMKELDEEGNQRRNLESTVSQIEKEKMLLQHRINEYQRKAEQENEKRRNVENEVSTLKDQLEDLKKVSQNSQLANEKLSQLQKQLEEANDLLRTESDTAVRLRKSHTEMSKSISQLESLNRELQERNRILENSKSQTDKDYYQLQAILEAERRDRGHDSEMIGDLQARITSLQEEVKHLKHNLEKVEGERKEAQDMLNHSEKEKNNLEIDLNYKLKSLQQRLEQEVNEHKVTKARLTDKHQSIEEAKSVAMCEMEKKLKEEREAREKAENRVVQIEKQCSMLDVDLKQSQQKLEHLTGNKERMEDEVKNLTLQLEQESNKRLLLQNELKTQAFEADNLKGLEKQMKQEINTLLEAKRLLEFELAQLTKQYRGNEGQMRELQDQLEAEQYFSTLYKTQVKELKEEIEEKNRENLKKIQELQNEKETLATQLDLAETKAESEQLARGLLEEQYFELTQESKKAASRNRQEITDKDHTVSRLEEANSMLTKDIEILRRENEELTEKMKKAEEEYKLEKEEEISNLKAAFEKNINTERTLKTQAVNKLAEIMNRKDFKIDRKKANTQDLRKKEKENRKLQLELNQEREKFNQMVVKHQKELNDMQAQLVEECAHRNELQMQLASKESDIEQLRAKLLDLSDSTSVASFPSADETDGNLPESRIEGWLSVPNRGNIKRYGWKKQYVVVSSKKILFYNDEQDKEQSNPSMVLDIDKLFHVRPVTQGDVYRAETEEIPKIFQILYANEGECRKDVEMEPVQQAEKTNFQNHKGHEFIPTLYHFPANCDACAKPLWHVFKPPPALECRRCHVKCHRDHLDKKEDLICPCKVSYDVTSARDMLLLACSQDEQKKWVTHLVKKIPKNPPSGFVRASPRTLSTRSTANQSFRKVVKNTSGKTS

| SMILES | pKi [1] | pKi [2] | pKi [3] | pKi [4] | pKi [5] |
| --- | --- | --- | --- | --- | --- |
| Nc1ccc(-c2c(-c3ccccc3)[nH]c3ncc(Br)cc23)cc1 [Compound 212] | 5.30 to 6.30 | 5.30 to 6.30 | > 6.30 | – | – |
| Clc1cnc2[nH]cc(-c3ccnc(NCc4ccccc4)n3)c2c1 [Compound 4] | > 6.30 | – | > 6.30 | > 6.30 | > 6.30 |
